Reference: US20100143477A1, “Methods and Compositions for Stimulating the Proliferation or Differentiation of Stem Cells with Substance Por an Analog Thereof” (Immuneregen Biosciences, Inc., priority 2007, published 2010)

Experiments:
[1] = tested on: CFU-Mk, platelet precursors (human bone marrow mononuclear cells); assay: Colony forming unit (CFU) assay (Example 6); format: cell-based; settings: for effect of antagonist on substance P enhanced platelet colony formation: in the presence of substance P
Description: (§1) As stem cells differentiate in response to growth factors, they form a colony of cells with distinct morphologies that can be visualized using a microscope. This study examined the formation of three different progenitor cell populations, erythrocytes, platelets and granulocytes/macrophages.
(§2) Bone marrow aspirates were obtained from three healthy donors between 18 and 35 years of age following appropriate guidelines and protocols. Bone marrow mononuclear cells were isolated using a Ficoll-Hypaque density gradient, separating red blood cells from the others. Cells from each donor were processed independently and used for setting up individual experiments to assess the effects, if any, of donor variability.
(§3) Cells (1×10^5) were plated in duplicate onto 35 mm tissue culture plates for each condition tested and set up as described in Rameshwar et al. 1993, Blood. 81:2, 391-398. Erythroid and granulocyte/macrophage cultures were plated using methylcellulose and megakaryocyte cultures (platelet precursors) used a collagen-based support (StemCell Technologies, Vancouver, Canada, catalogue #04973). […] CP 99,994 (Pfizer) was used as a neurokinin-1 receptor antagonist and SR 48968 (Sanofi) was used as a neurokinin-2 receptor antagonist.
Cultures were set up with limited cytokines and growth factors which would promote differentiation of one progenitor per plate.
Each compound was dissolved in endotoxin-free water to a final concentration of 0.1 mM. After reconstitution, the solutions were aliquoted into siliconized microcentrifuge tubes and exposed to nitrogen gas, eliminating oxygen in the head space of the enclosure. All aliquots were stored at −20° C. until use and used within one month of reconstitution. See, Rameshwar, et al. 1997, J. Immunol.
Cultures were incubated at 37° C. with 5% CO2 for approximately 14 days, after which colonies were manually enumerated using a microscope. […]

[2] = tested on: BFU-E (human bone marrow mononuclear cells); assay: Colony forming unit (CFU) assay (Example 6); format: cell-based; settings: approximately 14 days; FIG. 1
Description: as §1, §2
as §3, with “antagonist. […]” for “antagonist.”

[3] = tested on: CFU-E (human bone marrow mononuclear cells); assay: Colony forming unit (CFU) assay (Example 6); format: cell-based; settings: approximately 14 days; FIG. 2
Description: as §1, §2
as §3, with “antagonist. […]” for “antagonist.”

[4] = tested on: neurokinin-1 (NK1) receptor; NK2 and NK3 receptors; settings: Tousignant et al. 1990; cited from earlier work
[5] = tested on: human bone marrow-derived hematopoietic cell populations; assay: CFC and iATP assays, all 7 cell populations (Example 3); format: cell-based; settings: most of populations; 14 days; up to 1 nM
Protocol: The compound was dissolved in 1 ml of Iscove's Modified Dulbecco's Medium (IMDM) and a serial dose response prepared in single log doses so that the final dose in culture ranged from 1 nM to 1×10^−16 M. All working dilutions were performed in IMDM.
Starting with human bone marrow aspirate, the mononuclear cell (MNC) fraction was separated from the whole bone marrow using Ficoll-Paque density gradient centrifugation. […] The cell concentration was adjusted so that the final cell concentration in culture was 10,000 cells/well.
Human bone marrow MNC was dissolved in IMDM and cultured at a concentration of 10,000 cell/well in a CAMEO™-96 Master Mix (HemoGenix, Inc., Colorado Springs, Colo.). […]
Prior to processing all 96-well plates, the total colony counts/well were manually enumerated by microscopy. The mean, standard deviation and percent coefficient of variation was calculated for all groups, transposed and plotted. The intracellular ATP (iATP) concentration was measured after manual enumeration.
The output of the luminometer is non-standardized Relative Luminescence Units (RLU). […] This allowed the RLU values to be automatically calculated into standardized ATP (μM) units. For both the RLU and ATP values derived from each well, the luminometer software calculated the mean, standard deviation and percent coefficient of variation.

[6] = tested on: human-derived hematopoietic cell populations; assay: CFC assay, multi-donor study, all seven cell populations (Example 4); format: cell-based; settings: highest doses (up to 1 nM); three donors
Protocol: Compound was dissolved in 1 ml of Iscove's Modified Dulbecco's Medium (IMDM) and a serial dose response was prepared in single log doses so that the final dose in culture ranged from 1 nanoMolar (nM) to 1×10^−16 M. All working dilutions were performed in IMDM. Cell cultures from each donor were started at different times and a fresh solution of Homspera® was prepared for each individual experiment.
Starting with human bone marrow aspirate, the mononuclear cell (MNC) fraction from each aspirate was separated from whole bone marrow using Ficoll-Paque density gradient centrifugation.
The colony-forming cell (CFC) assay was performed using optimal growth factor/cytokine concentrations. The reagents and conditions were similar to those used in Example 3, except that no ATP measurements were performed. The MNC fraction from each bone marrow donor was dissolved in IMDM and cultured at a concentration of 5,000 cells/well in a Culture Master Mix (HemoGenix, Inc., Colorado Springs, Colo.). […]
The mean, standard deviation and percent coefficient of variation was calculated for all groups, transposed and plotted as a function of donor. The percent from control values were calculated and also plotted as a function of donor. […]

Molecule: COc1ccccc1CN[C@H]1CCCN[C@H]1c1ccccc1 [CP-99,994]
- effect of antagonist on substance P enhanced platelet colony formation [1]: blocks the stimulatory activity of substance P

Molecule: RPKPQQFFGLM [substance P]
- BFU-E colony formation, increase from control values [2]: ~60%
- CFU-E colony formation, enhancement from control values [3]: about 70%
- effective concentration, platelet precursors (CFU-Mk) [1]: 10^−8 M
- neurokinin receptor specificity [4]: can also activate the neurokinin-2 (NK2) and neurokinin-3 (NK3) receptors

Molecule: CC(=O)NC1(c2ccccc2)CCN(CC[C@H](CN(C)C(=O)c2ccccc2)c2ccc(Cl)c(Cl)c2)CC1 [SR48968]
- effect of antagonist on substance P enhanced platelet colony formation [1]: no effect on substance P activity

Molecule: CC(C)C[C@H](NC(=O)CN(C)C(=O)[C@H](Cc1ccccc1)NC(=O)[C@H](Cc1ccccc1)NC(=O)[C@H](CCC(N)=O)NC(=O)[C@H](CCC(N)=O)NC(=O)[C@@H]1CCCN1C(=O)[C@H](CCCCN)NC(=O)[C@@H]1CCCN1C(=O)[C@@H](N)CCCNC(=N)N)C(=O)N[C@@H](CCS(C)(=O)=O)C(N)=O [Homspera®]
- cytotoxicity [5]: apparent absence of distinct cytotoxicity
- toxicity [6]: no apparent toxicity
